Data on four compounds can be found in patent US4347319A, “Microbiological epoxidation process” (priority 1980, dated 1982).

Structures are written as SMILES.

Test [1] deals with Methylococcus capsulatus (Texas, ATCC 19,069). Description: Oxidation by cell suspensions of methane-grown cells. The class given is cell-based. The following applies: growth substrate Methane; n-alkane to secondary alcohol. On the procedure:
(§1) The pH of the nutrient medium was adjusted to 7.0 by the addition of acid or base and 50 ml samples of the nutrient medium were charged into a plurality of 300 ml shaker flasks. The shaker flasks were inoculated with an inoculating loop of cells from an agar plate containing homogeneous colonies of the microorganisms on the plate (the purity of the isolates was confirmed by microscopic examination. The isolates had been maintained on agar plates under an atmosphere of methane and air having a 1:1 v/v gas ratio which had been transferred evey two weeks. The gaseous phase of the inoculated flasks was then replaced with a gas mixture comprised of methane and air having a ratio of 1:1 on a v/v basis. The inoculated flasks were sealed air tight and were incubated on a rotary shaker of orbital radius 2.5 cm at 250 rpm and at 30° C. for two days until turbidity in the medium had developed.
(§2) The cells were harvested by centrifugation at 10,000×g. at 4° C. for 30 minutes. The cell pellet was washed twice with a 0.15 M phosphate buffer at a pH of 7.0 (containing 0.002 M MgCl2). The washed cells were then suspended in a 0.15 M phosphate buffer at pH 7.0.
(§3) A 0.5 ml sample of each washed cell suspension (2 mg cells) was put into 10 ml vials at 4° C. which were sealed with a rubber cap. The gaseous phase of the vials was removed with vacuum and then was replaced with a gas mixture of the oxidative substrate (e.g., methane) and oxygen at a 1:1 v/v ratio. The vials were then incubated at 30 ° C. on a rotary shaker at 300 rpm. Samples of product (3 μl) were withdrawn periodically with a microsyringe and the products were analyzed by gas chromatography (ionization flame detector column).
(§4) The conditions for preparing the cell suspensions or the cell-free particulate fractions from methane-grown methylotroph microorganisms is the same as described above.

The subject of test [2] is Methylobacter capsulatus (Y, NRRL-B-11,201). The description is as above. The conditions noted are these: growth substrate Methane; n-alkane to secondary alcohol. It counts as cell-based. On the procedure: as §1, §2, §3, §4
Test [3] concerns Methylosinus trichosporium OB3b (NRRL B-11,196). The test is described as above. It counts as cell-based. The following applies: growth substrate Methane; n-alkane to secondary alcohol. On the procedure: as §1, §2, §3, §4
The subject of test [4] is P(40) particulate fraction of Methylosinus sp. (CRL-15, NRRL B-11,202). Description: Substrate competition: effect of methane on propylene epoxidation. The class given is biochemical. The following applies: 30° C. How it is done: The oxidation of methane and propylene by particulate [(P)40 and (P)80] fractions and soluble [S(80)] fraction was measured at 30° C. by estimating the production of methanol and propylene oxide, respectively. The reaction mixtures contained in […]: 150 mM potassium phosphate buffer, pH 7.0 containing 5 mM MgCl2 b, 0.6 ml; 10μ moles NADH, and cellular fraction.
Reaction mixtures were contained in 10 ml vials at 4° C. Vials were sealed with rubber caps. The gaseous phase in the vials was removed using vacuum and then was replaced with a gas mixture of methane or propylene and oxygen at a 1:1, v/v ratio. Oxidation of other gaseous n-alkanes and n-alkanes was examined as described above. For liquid substrates, 10 μl of substrate was used directly.
The hydroxylation of methane and the epoxidation of propylene by particulate fractions of methane-utilizing bacteria required oxygen and NADH. The question of whether the same or a similar enzyme was involved in the oxidation of both substrates was examined by substrate competition experiments. The experiment consisted of determining the effect of methane on the oxidation of propylene to propylene oxide by the P(40) particulate fraction of Methylosinus sp. (CRL-15, NRRL B-11,202).

Test [5] concerns the target T1, cell-free fractions of Methylococcus capsulatus (CRL M1, NRRL B-11,219) (Methylococcus capsulatus, UniProt G1UBD1+Q603F1+Q607G3).
T1 sequence (G1UBD1 33-414): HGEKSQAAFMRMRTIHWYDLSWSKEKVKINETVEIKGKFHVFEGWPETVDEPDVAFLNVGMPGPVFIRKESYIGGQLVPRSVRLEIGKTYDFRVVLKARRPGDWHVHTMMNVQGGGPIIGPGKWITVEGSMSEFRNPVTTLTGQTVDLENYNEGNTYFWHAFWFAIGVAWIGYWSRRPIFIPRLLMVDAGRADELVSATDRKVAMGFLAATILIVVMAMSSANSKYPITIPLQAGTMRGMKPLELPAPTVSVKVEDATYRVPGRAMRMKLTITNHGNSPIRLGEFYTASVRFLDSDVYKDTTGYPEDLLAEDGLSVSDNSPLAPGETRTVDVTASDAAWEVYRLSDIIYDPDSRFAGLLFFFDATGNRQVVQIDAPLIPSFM
T1 sequence (Q607G3 1-247): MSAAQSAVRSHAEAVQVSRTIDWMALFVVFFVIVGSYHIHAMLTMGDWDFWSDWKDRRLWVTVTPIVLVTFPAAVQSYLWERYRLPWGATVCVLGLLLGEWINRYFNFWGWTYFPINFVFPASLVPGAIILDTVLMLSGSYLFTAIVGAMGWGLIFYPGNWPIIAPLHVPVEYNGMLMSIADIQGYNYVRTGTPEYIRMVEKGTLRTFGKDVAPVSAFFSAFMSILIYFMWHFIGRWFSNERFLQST
T1 sequence (Q603F1 1-260): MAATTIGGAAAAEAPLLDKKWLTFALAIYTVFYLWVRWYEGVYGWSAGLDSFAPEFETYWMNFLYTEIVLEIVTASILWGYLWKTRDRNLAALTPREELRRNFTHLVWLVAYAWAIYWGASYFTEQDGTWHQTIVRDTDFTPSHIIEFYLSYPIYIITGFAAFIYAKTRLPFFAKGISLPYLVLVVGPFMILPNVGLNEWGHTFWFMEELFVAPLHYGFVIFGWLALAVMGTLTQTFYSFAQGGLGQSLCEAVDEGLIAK
Description: Epoxidation and hydroxylation activities in cell-free fractions. The class given is biochemical. On the procedure:
Cells of methane-grown Methylococcus capsulatus (CRL M1, NRRL B-11,219) were obtained by the method of Example 1. […] However, when the cells were disrupted by passing twice through a French pressure cell (1000 Kg. pressure), both activities were found in the crude extract after 10,000×g. centrifugation. All of the activity in the crude extract was collected as a particulate fraction by further centrifugation of the crude extract at 40,000×g. for 90 min. at 4° C.
^a The cells were disrupted by French Press as described above. NADH
[…] was added into the reaction mixture where indicated.
The amount of protein in the particulate fraction and the 40,000 ×
g. supernatant fraction used was 1 mg. and 2.5 mg., respectively. Each
assay contained 0.5 ml. reaction mixture.

[6] abbreviates: particulate fraction (10,000 × g.-40,000 × g.), 1 mg. protein.
Where [7] appears, read: supernatant fraction of 40,000 × g., 2.5 mg. protein.

With `CCCC` [Butane], the “Conversion Rate” value in test [1] was found to be 1.0 μmoles/hr/^5 mg. protein; in test [2], 0.09 μmoles/hr/^5 mg. protein; in test [3] it was 1.5 μmoles/hr/^5 mg. protein.
In the case of `C` [Methane], the “Propylene Oxide Produced” value in test [4] was determined as 0 μmoles/hr./mg. protein. The “Oxidation Rate” value in test [5] (setting [6]) came to 500 nmoles/30 min/assay; in test [5] (particulate fraction + NADH), 650 nmoles/30 min/assay; in test [5] (supernatant fraction + NADH), 0 nmoles/30 min/assay; in test [5] (setting [7]), 0 nmoles/30 min/assay.
`CCC` [Propane]: the “Conversion Rate” value worked out at 1.1 μmoles/hr/^5 mg. protein in test [1], 0.20 μmoles/hr/^5 mg. protein in test [2] and 2.5 μmoles/hr/^5 mg. protein in test [3].
Take `C=CC` [Propylene]: the “Propylene Oxide Produced” value in test [4] is on record as 4.3 μmoles/hr./mg. protein. For the same compound, the “Oxidation Rate” value in test [5] (setting [6]) is recorded as 750 nmoles/30 min/assay; in test [5] (particulate fraction + NADH), 900 nmoles/30 min/assay; in test [5] (supernatant fraction + NADH), 0 nmoles/30 min/assay; in test [5] (setting [7]) it was 0 nmoles/30 min/assay.
